Results published in US7560468B2, “Substituted 1,4,8-triazaspiro[4,5]decan-2-one compounds” (Gruenenthal GmbH, priority 2004, dated 2009).

Columns and labels:
[1] = tested on: batrachotoxin (BTX) binding site of the sodium channel; experiment: Affinity to the batrachotoxin (BTX) binding site of the sodium channel; settings: rat cerebrocortex synaptosomes, [3H]-batrachotoxinin A20 α-benzoate 10 nM; test concentration not given
[2] = biological target: T1, 5-HT transporter (Rattus norvegicus, UniProt P31652); experiment: Inhibition of 5-HT uptake in synaptosomes; format: biochemical
T1 construct: from tissue; host or cells: rat brain synaptosomes (marrow/medulla and pons), P2 fraction
T1 sequence (P31652 whole entry): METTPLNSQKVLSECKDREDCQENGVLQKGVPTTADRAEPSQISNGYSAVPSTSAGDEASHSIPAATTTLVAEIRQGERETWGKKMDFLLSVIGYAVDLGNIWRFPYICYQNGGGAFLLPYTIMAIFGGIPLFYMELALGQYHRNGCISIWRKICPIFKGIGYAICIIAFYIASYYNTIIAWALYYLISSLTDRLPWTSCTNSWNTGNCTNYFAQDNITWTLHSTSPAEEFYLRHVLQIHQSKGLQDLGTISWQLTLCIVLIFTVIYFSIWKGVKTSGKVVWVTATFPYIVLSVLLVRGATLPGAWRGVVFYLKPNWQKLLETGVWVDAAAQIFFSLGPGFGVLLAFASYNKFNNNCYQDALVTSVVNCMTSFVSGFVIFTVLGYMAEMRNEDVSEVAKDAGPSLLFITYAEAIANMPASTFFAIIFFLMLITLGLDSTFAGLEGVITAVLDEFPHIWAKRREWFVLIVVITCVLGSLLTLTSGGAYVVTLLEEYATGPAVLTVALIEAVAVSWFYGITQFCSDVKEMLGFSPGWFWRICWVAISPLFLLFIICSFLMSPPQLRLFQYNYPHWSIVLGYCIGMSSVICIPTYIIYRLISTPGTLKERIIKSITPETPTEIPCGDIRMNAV

[3] = tested on: NA transporter; experiment: Inhibition of noradrenalin uptake in synaptosomes; format: biochemical

Structure (SMILES): Cc1cccc(NC(=S)N2CCC3(CC2)NC(Cc2ccccc2)C(=O)N3Cc2ccccc2F)c1 (stereo not drawn) [Example 166, 3-Benzyl-1-(2-fluorobenzyl)-2-oxo-1,4,8-triazaspiro[4,5]decan-8-thiocarboxylic acid m-tolylamide]
- BTX Inhibition [1]: 85
- inhibition at 1 µM ([2]; read-out: Uptake_5-HT, rat, 1 μM, % inhibition): 64%
- Uptake (NA), rat, 10 μM, % inhibition [3]: 39%

Structure (SMILES): CSCCC1NC2(CCN(C(=O)Nc3cccc(C(C)=O)c3)CC2)N(Cc2ccccc2)C1=O (stereo not drawn) [Example 214, 1-Benzyl-3-(2-methylsulfanylethyl)-2-oxo-1,4,8-triazaspiro[4,5]decan-8-carboxylic acid (3-acetylbenzol)amide]
- BTX Inhibition [1]: 40
- Uptake_5-HT, rat, 1 μM, % inhibition [2]: 51%
- Uptake (NA), rat, 10 μM, % inhibition [3]: 36%

Structure (SMILES): CC(C)C1NC2(CCN(C(=S)Nc3c(F)c(F)c(F)c(F)c3F)CC2)N(Cc2ccccc2)C1=O (stereo not drawn) [Example 154, 1-Benzyl-3-isopropyl-2-oxo-1,4,8-triazaspiro[4,5]decan-8-thiocarboxylic acid pentafluorobenzolamide-amide]
- BTX Inhibition [1]: 61
- Uptake_5-HT, rat, 1 μM, % inhibition [2]: 34%
- Uptake (NA), rat, 10 μM, % inhibition [3]: 43%

Structure (SMILES): CSCCC1NC2(CCN(C(=O)Nc3ccc(Cl)c(C(F)(F)F)c3)CC2)N(Cc2ccccc2)C1=O (stereo not drawn) [Example 211, 1-Benzyl-3-(2-methylsulfanylethyl)-2-oxo-1,4,8-triazaspiro[4,5]decan-8-carboxylic acid (4-chloro-3-trifluoromethylbenzol)amide]
- BTX Inhibition [1]: 85
- Uptake_5-HT, rat, 1 μM, % inhibition [2]: 45%
- Uptake (NA), rat, 10 μM, % inhibition [3]: 40%

Structure (SMILES): CCCCN1C(=O)C(CCSC)NC12CCN(C(=S)Nc1ccc(OCC)cc1)CC2 (stereo not drawn) [Example 158, 1-Butyl-3-(2-methylsulfanylethyl)-2-oxo-1,4,8-triazaspiro[4,5]decan-8-thiocarboxylic acid (4-ethoxy-benzol)amide]
- BTX Inhibition [1]: 35
- Uptake_5-HT, rat, 1 μM, % inhibition [2]: 33%
- Uptake (NA), rat, 10 μM, % inhibition [3]: 41%

Structure (SMILES): CCCCN1C(=O)C(CCSC)NC12CCN(C(=O)Nc1cc(OC)c(OC)c(OC)c1)CC2 (stereo not drawn) [Example 210, 1-Butyl-3-(2-methylsulfanylethyl)-2-oxo-1,4,8-triazaspiro[4,5]decan-8-carboxylic acid (3,4,5-trimethoxy-benzol)amide]
- BTX Inhibition [1]: 44
- Uptake_5-HT, rat, 1 μM, % inhibition [2]: 32%
- Uptake (NA), rat, 10 μM, % inhibition [3]: 36%

Structure (SMILES): COc1cccc(NC(=O)N2CCC3(CC2)NC(CCSC)C(=O)N3Cc2cccc(C#N)c2)c1 (stereo not drawn) [Example 236, 1-(3-Cyanobenzyl)-3-(2-methylsulfanylethyl)-2-oxo-1,4,8-triazaspiro[4,5]decan-8-carboxylic acid (3-methoxy-benzol)amide]
- BTX Inhibition [1]: 42
- Uptake_5-HT, rat, 1 μM, % inhibition [2]: 32%
- Uptake (NA), rat, 10 μM, % inhibition [3]: 34%

Structure (SMILES): CSCCC1NC2(CCN(C(=O)Nc3cccc(C#N)c3)CC2)N(Cc2ccccc2)C1=O (stereo not drawn) [Example 208, 1-Benzyl-3-(2-methylsulfanylethyl)-2-oxo-1,4,8-triazaspiro[4,5]decan-8-carboxylic acid (3-cyanobenzol)amide]
- BTX Inhibition [1]: 41
- Uptake_5-HT, rat, 1 μM, % inhibition [2]: 45%
- Uptake (NA), rat, 10 μM, % inhibition [3]: 49%

Structure (SMILES): CCOc1ccc(NC(=O)N2CCC3(CC2)NC(CCSC)C(=O)N3Cc2ccccc2)cc1 (stereo not drawn) [Example 213, 1-Benzyl-3-(2-methylsulfanylethyl)-2-oxo-1,4,8-triazaspiro[4,5]decan-8-carboxylic acid (4-ethoxy-benzol)amide]
- BTX Inhibition [1]: 41
- Uptake_5-HT, rat, 1 μM, % inhibition [2]: 39%
- Uptake (NA), rat, 10 μM, % inhibition [3]: 37%

Structure (SMILES): CSCCC1NC2(CCN(C(=S)Nc3cccc(C(C)=O)c3)CC2)N(Cc2ccc3ccccc3c2)C1=O (stereo not drawn) [Example 165, 3-(2-Methylsulfanylethyl)-1-naphthalin-2-ylmethyl-2-oxo-1,4,8-triazaspiro[4,5]decan-8-thiocarboxylic acid (3-acetylbenzol)amide]
- BTX Inhibition [1]: 64
- Uptake_5-HT, rat, 1 μM, % inhibition [2]: 42%
- Uptake (NA), rat, 10 μM, % inhibition [3]: 48%
